The target in experiment [1] is T1, ROCKII (1-543) (Homo sapiens, UniProt O75116). Description: Luciferin-Luciferase Assay (PKLight ATP detection). Type of experiment: biochemical. More on the design: ROCKII (1-543) (62,408 Da) was diluted in assay buffer. To be noted: 7.5 nM ROCKII (1-543), 750 nM ATP. Here is the method: 1. Luciferin-Luciferase Assay
The activity of ROCKII (1-543) kinase was measured utilizing Cambrex PKLight ATP Detection Reagent, a homogeneous assay technology using luciferin-luciferase to quantify residual ATP. The assay was performed in 384-well low-volume, white, non-binding surface microtiter plates (Corning). The assay buffer was 25 mM HEPES, pH 7.5, 10 mM MgCl2, 50 mM KCl, 0.2% BSA, 0.01% CHAPS, 100 μM Na3VO4 and 0.5 mM DTT. Test compounds, dissolved in neat DMSO at 500 μg/mL, were serially diluted for dose response for a final starting concentration of 3 μg/mL in 1% DMSO of assay buffer. ROCKII (1-543) (62,408 Da) was diluted in assay buffer to a final concentration of 7.5 nM in a total volume of 15 μL. Positive controls were reaction mixtures containing no test compound; negative controls (blanks) were reaction mixtures containing no kinase. After 15 minutes of pre-incubation of the test compounds with the kinase, a mixture of ATP and peptide substrate (AKRRRLSSLRA) in assay buffer was added to each well for a final concentration of 750 nM ATP and 500 nM peptide, respectively. After 90 minutes of incubation of the kinase reaction at 28° C. temperature, 10 μL of PKLight ATP Detection Reagent (warmed to room temperature previously) was added to each well. The assay plate was incubated at room temperature for additional 15 minutes and then read on an Analyst in luminescence mode. Dose-response experiments for each of the test compounds were conducted in quadruplet. IC50 values of test compounds represent 50% response of the positive control from the dose-response curve.
Target sequence in this assay (O75116 1-543): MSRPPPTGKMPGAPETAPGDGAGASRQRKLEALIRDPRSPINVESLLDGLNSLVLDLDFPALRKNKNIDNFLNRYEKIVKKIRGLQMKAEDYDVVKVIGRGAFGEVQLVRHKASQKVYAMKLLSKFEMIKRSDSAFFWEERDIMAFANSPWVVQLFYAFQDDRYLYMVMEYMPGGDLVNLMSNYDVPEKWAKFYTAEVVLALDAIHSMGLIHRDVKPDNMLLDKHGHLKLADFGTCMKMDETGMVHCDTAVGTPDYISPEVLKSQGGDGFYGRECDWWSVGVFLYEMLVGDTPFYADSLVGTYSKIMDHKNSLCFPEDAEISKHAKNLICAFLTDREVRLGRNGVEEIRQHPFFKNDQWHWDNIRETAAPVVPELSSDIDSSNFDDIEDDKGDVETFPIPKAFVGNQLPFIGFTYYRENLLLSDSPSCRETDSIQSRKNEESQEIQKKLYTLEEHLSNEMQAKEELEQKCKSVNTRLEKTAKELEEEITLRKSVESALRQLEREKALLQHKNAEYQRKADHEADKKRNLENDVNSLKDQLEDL

The target in experiment [2] is T1, ROCKII (1-543). As to the kind of experiment: IMAP Assay (fluorescence polarization, FAM S6 peptide). More on the design: 3 nM ROCKII (1-543) diluted in kinase reaction buffer. To be noted: IMAP FP, 1 nM ROCKII (1-543), 100 μM ATP; read-out: Assay 2 IC50. The experiment is classed as biochemical. As to the method: This assay is performed using FAM S6 substrate peptide (Catalogue #R7184) and IMAP FP Screening Express Kit detection reagents from Molecular Devices (Sunnyvale, Calif.) in IMAP kinase reaction buffer (Tris-HCl, pH 7.2, 10 mM MgCl2, 0.05% NaN3, 0.1% phosphate-free BSA) containing 1 mM DTT. Test compounds dissolved in neat DMSO at 0.3 mg/mL are serially diluted 1 to 3 for concentration response in 100% DMSO. The DMSO serial dilutions are further diluted 33.33-fold in kinase reaction buffer, and 10 μL of this buffer dilution is transferred to Corning black 96-well half area NBS plates for a final top concentration of 3 μg/mL in 1% DMSO. 10 μL aliquot of 3 nM ROCKII (1-543) diluted in kinase reaction buffer is added to each assay well for a final concentration of 1 nM kinase. 10 μL of a mixture of 600 nM FAM S6 peptide and 300 μM ATP diluted in kinase reaction buffer is added to each well for a final concentration of 200 nM peptide and 100 μM ATP. The kinase reaction mixture is incubated for 60 minutes at room temperature. Positive controls are reaction mixtures containing no test compound and negative controls (blanks) are reaction mixtures containing no kinase. The kinase reaction is stopped by addition of 60 μL IMAP progressive binding reagent (Catalog #R7284) diluted 400-fold in 1× Binding buffer A. After 30 min of incubation at room temperature, the plates are read for fluorescence polarization on Analyst Plate Reader using Ex 485 nm, Em 530 nm, and FL 505 dichroic mirror. The mP signals are converted to percent of control (POC) values using the formula: POC=100*(Signal−BCTRL)÷(PCTRL−BCTRL)
Where Signal is the test well signal, BCTRL is the average of background (negative control) well signals on the plate and PCTRL is the average of positive control well signals on the plate. For the concentration-responsive compounds, POC as a function of test compound concentration is fitted to a 4-parameter logistic equation of the form: Y=A+(B−A)/[1+(x/C)D]
Where A, B, C, and D are fitted parameters (parameter B is fixed at zero POC), and x and y are the independent and dependent variables, respectively. The IC50 is determined as the inflection point parameter, C.
Target sequence in this assay (O75116 1-543, species assumed): as the sequence (O75116 1-543) above
(Polarisation of emitted light reports the rotation of a fluorescent probe.)

pIC50: −log10 of the molar value. Where a name gives a salt, the structure may show the parent alone.

These results are taken from US9000154B2, “Rho kinase inhibitors” (Boehringer Ingelheim International GmbH, priority 2010, dated 2015).

The term pIC50 denotes the IC50 on a negative log10 scale, so that one unit is a factor of ten.

As to `CN1CCc2nc(NC(=O)c3cccc(CN4CCN(c5ccc(C#N)cc5)C4=O)c3)sc2C1` [Compound 1, 3-[3-(4-Cyano-phenyl)-2-oxo-imidazolidin-1-ylmethyl]-N-(5-methyl-4,5,6,7-tetrahydro-thiazolo[5,4-c]pyridin-2-yl)-benzamide], the pIC50 in experiment [1] is 8.32; in experiment [2] it was 7.27.
Taken in the same sequence, the figures for `CN1CCc2nc(NC(=O)c3cccc(Cn4cc(-c5ccc(C#N)cc5)nn4)c3)sc2C1` [Compound 2, 3-[4-(4-Cyano-phenyl)-[1,2,3]triazol-1-ylmethyl]-N-(5-methyl-4,5,6,7-tetrahydro-thiazolo[5,4-c]pyridin-2-yl)-benzamide] were 8.55 and 7.96.
Regarding `CN(C)[C@H]1CCc2nc(NC(=O)c3cccc(CN4CCN(c5ccc(C#N)cc5)C4=O)c3)sc2C1` [Compound 3, 3-[3-(4-Cyano-phenyl)-2-oxo-imidazolidin-1-ylmethyl]-N—((S)-6-dimethylamino-4,5,6,7-tetrahydro-benzothiazol-2-yl)-benzamide], the values for the pIC50 in experiment [1] and in experiment [2] were 8.70 and 9.17, respectively.
For `N#Cc1ccc(N2CCN(Cc3cccc(C(=O)Nc4nc5c(s4)C[C@@H](N4CCOCC4)CC5)c3)C2=O)cc1` [Compound 6, 3-[3-(4-Cyano-phenyl)-2-oxo-imidazolidin-1-ylmethyl]-N—((S)-6-morpholin-4-yl-4,5,6,7-tetrahydro-benzothiazol-2-yl)-benzamide], in that order: 8.70 and 8.89.
For `N#Cc1ccc(-c2cn(Cc3cccc(C(=O)Nc4nc5c(s4)C[C@@H](N4CCOCC4)CC5)c3)cn2)cc1` [Compound 10, 3-[4-(4-Cyano-phenyl)-imidazol-1-ylmethyl]-N—((S)-6-morpholin-4-yl-4,5,6,7-tetrahydro-benzothiazol-2-yl)-benzamide], in that order: 8.57 and 9.06.
For the compound `N#Cc1ccc(-c2cnn(Cc3cccc(C(=O)Nc4nc5c(s4)CC(N4CCC(F)(F)CC4)CC5)c3)c2)cc1` (stereo not shown) [Compound 15, 3-[4-(4-Cyano-phenyl)-pyrazol-1-ylmethyl]-N-[6-(4,4-difluoro-piperidin-1-yl)-4,5,6,7-tetrahydro-benzothiazol-2-yl]-benzamide trifluoroacetate], the pIC50 in experiment [1] is 8.34; in experiment [2] it was 8.62.
For `N#Cc1ccc(-c2cnn(Cc3cccc(C(=O)Nc4nc5c(s4)CC(N4CCC(F)CC4)CC5)c3)c2)cc1` (stereo not shown) [Compound 18, 3-[4-(4-Cyano-phenyl)-pyrazol-1-ylmethyl]-N-[6-(4-fluoro-piperidin-1-yl)-4,5,6,7-tetrahydro-benzothiazol-2-yl]-benzamide trifluoroacetate], in that order: 8.66 and 9.18.
For `N#Cc1ccc(-c2cn(Cc3cccc(C(=O)Nc4nc5c(s4)C[C@@H](NCCC(F)(F)F)CC5)c3)nn2)cc1` [Compound 22, 3-[4-(4-Cyano-phenyl)-[1,2,3]triazol-1-ylmethyl]-N—[(S)-6-(3,3,3-trifluoro-propylamino)-4,5,6,7-tetrahydro-benzothiazol-2-yl]-benzamide], in that order: 8.66 and 8.96.
Taken in the same sequence, the figures for `COCCN(C)C1CCc2nc(NC(=O)c3cccc(Cn4cc(-c5ccc(C#N)cc5)nn4)c3)sc2C1` (stereo not shown) [Compound 24, 3-[4-(4-Cyano-phenyl)-[1,2,3]triazol-1-ylmethyl]-N-{6-[(2-methoxy-ethyl)-methyl-amino]-4,5,6,7-tetrahydro-benzothiazol-2-yl}-benzamide] were 8.51 and 8.59.
In experiment [1], `COCCN[C@@H]1CCc2nc(NC(=O)c3cccc(Cn4cc(-c5ccc(C#N)cc5)cn4)c3)sc2C1` [Compound 57, 3-[4-(4-Cyano-phenyl)-pyrazol-1-ylmethyl]-N—[(R)-6-(2-methoxy-ethylamino)-4,5,6,7-tetrahydro-benzothiazol-2-yl]-benzamide] gave a pIC50 of 8.72.
Still for that read-out and setting: the same measure for `N#Cc1ccc(-c2cn(Cc3cccc(C(=O)Nc4nc5c(s4)C[C@H](N)CC5)c3)nn2)cc1` [Compound 58, N—((R)-6-Amino-4,5,6,7-tetrahydro-benzothiazol-2-yl)-3-[4-(4-cyano-phenyl)-[1,2,3]triazol-1-ylmethyl]-benzamide]: 8.66; for `CN(CC(F)F)C1CCc2nc(NC(=O)c3cccc(Cn4cc(-c5ccc(C#N)cc5)cn4)c3)sc2C1` (stereo not shown) [Compound 59, 3-[4-(4-Cyano-phenyl)-pyrazol-1-ylmethyl]-N-{6-[(2,2-difluoro-ethyl)-methyl-amino]-4,5,6,7-tetrahydro-benzothiazol-2-yl}-benzamide]: 8.14.
In experiment [1], `COCCN(C)[C@@H]1CCc2nc(NC(=O)c3cccc(Cn4cc(-c5ccc(C#N)cc5)cn4)c3)sc2C1` [Compound 64, 3-[4-(4-Cyano-phenyl)-pyrazol-1-ylmethyl]-N-{(R)-6-[(2-methoxy-ethyl)-methyl-amino]-4,5,6,7-tetrahydro-benzothiazol-2-yl}-benzamide] gave a pIC50 of 8.70.
The same measure, in the same setting: the same measure for `COCCN[C@@H]1CCc2nc(NC(=O)c3cccc(Cn4cc(-c5ccc(C#N)cc5)nn4)c3)sc2C1` [Compound 65, 3-[4-(4-Cyano-phenyl)-[1,2,3]triazol-1-ylmethyl]-N—[(R)-6-(2-methoxy-ethylamino)-4,5,6,7-tetrahydro-benzothiazol-2-yl]-benzamide]: 8.72; for `COCCN(C)[C@@H]1CCc2nc(NC(=O)c3cccc(Cn4cc(-c5ccc(C#N)cc5)nn4)c3)sc2C1` [Compound 66, 3-[4-(4-Cyano-phenyl)-[1,2,3]triazol-1-ylmethyl]-N-{(R)-6-[(2-methoxy-ethyl)-methyl-amino]-4,5,6,7-tetrahydro-benzothiazol-2-yl}-benzamide]: 8.19; for `CN(C1CC1)C1CCc2nc(NC(=O)c3cccc(Cn4cc(-c5ccc(C#N)cc5)cn4)c3)sc2C1` (stereo not shown) [Compound 67, 3-[4-(4-Cyano-phenyl)-pyrazol-1-ylmethyl]-N-[6-(cyclopropyl-methyl-amino)-4,5,6,7-tetrahydro-benzothiazol-2-yl]-benzamide]: 8.35.
The same measure, in the same setting: next, `CN(C1CC1)C1CCc2nc(NC(=O)c3cccc(Cn4cc(-c5ccc(C#N)cc5)nn4)c3)sc2C1` (stereo not shown) [Compound 68, 3-[4-(4-Cyano-phenyl)-[1,2,3]triazol-1-ylmethyl]-N-[6-(cyclopropyl-methyl-amino)-4,5,6,7-tetrahydro-benzothiazol-2-yl]-benzamide]: 8.14.
The same measure, in the same setting: next, `N#Cc1ccc(-c2cnn(Cc3cccc(C(=O)Nc4nc5c(s4)CC(N4CCCC(F)(F)C4)CC5)c3)c2)cc1` (stereo not shown) [Compound 71, 3-[4-(4-Cyano-phenyl)-pyrazol-1-ylmethyl]-N-[6-(3,3-difluoro-piperidin-1-yl)-4,5,6,7-tetrahydro-benzothiazol-2-yl]-benzamide]: 8.14; `N#Cc1ccc(-c2cnn(Cc3cccc(C(=O)Nc4nc5c(s4)CC(N4CCC(F)(F)C4)CC5)c3)c2)cc1` (stereo not shown) [Compound 73, 3-[4-(4-Cyano-phenyl)-pyrazol-1-ylmethyl]-N-[6-(3,3-difluoro-pyrrolidin-1-yl)-4,5,6,7-tetrahydro-benzothiazol-2-yl]-benzamide]: 8.07.
